Read-outs that look alike come from different tables or passages of the source. Non-standard residues stand in square brackets, D forms with d. Residues, ends and D or L forms follow the SMILES beside them. Ala(5-hexenyl) = C=CCCCCC[C@H](N)C(=O)O; Aib = CC(C)(N)C(=O)O
What was measured:
human HDAC1 = molecular target: T1, human HDAC1 (Homo sapiens, UniProt Q13547); test: HDAC-inhibiting activity, coumarin-labeled acetylated histone peptide assay; type: biochemical; settings: human HDAC1 from transfected 293T cells; 37° C., 30 minutes
T1 construct: made in house; host or cells: 293T cells (transient transfection, anti-FLAG immunoprecipitation, FLAG peptide elution)
Description: (§1) In carrying out HDAC-inhibiting activity measurements, HDAC solutions were prepared in the following manner. In each 100-mm dish, there were sowed 1×10^7 293T cells and, after 24 hours, they were transfected with a vector (5 μg) expressing human HDAC1 or HDAC4 or murine HDAC6 using the LipofectAmine 2000 reagent (Invitrogen). The human HDAC1 expression vector used was pcDNA3-HD1 (Yang, W. M., Yao, Y. L., Sun, J. M., Davie, J. R. & Seto, E. (1997) J. Biol. Chem. 272, 28001-28007), the human HDAC4 expression vector used was pcDNA3-HD4 (Fischle, W., Emiliani, S., Hendzel, M. J., Nagase, T., Nomura, N., Voelter, W. & Verdin, E. (1999) J. Biol. Chem. 274, 11713-11720), and the murine HDAC6 expression vector used was pcDNA3-mHDA2/HDAC6 (Verdel, A. & Khochbin, S. (1999) J. Biol. Chem. 274, 2440-2445).
(§2) After 24 hours of incubation, cells were recovered, washed with PBS, suspended in lysis buffer (50 mM Tris-HCl (pH 7.5), 120 mM NaCl, 5 mM EDTA, 0.5% Nonidet P-40), and sonicated. The supernatant was collected by centrifugation and then deprived of nonspecific proteins using Protein A/G plus agarose beads (Santa Cruz Biotechnologies, Inc.). Thereafter, anti-FLAG M2 antibody (Sigma-Aldrich Inc.) was added, and the reaction was allowed to proceed at 4° C. for 2 hours.
(§3) To this were added agarose beads, the reaction was allowed to proceed at 4° C. for 3 hours, and the agarose beads were washed three times with lysis buffer and then once with HD buffer (20 mM Tris-HCl (pH 8.0), 150 mM NaCl, 10% glycerol). The protein bound to the agarose beads was recovered by 1 hour of incubation with FLAG peptide (40 μg) (Sigma-Aldrich Inc.) in HD buffer (200 μl) at 4° C., and the liquid recovered was used, as a reactant solution, in the HDAC-inhibiting activity measurement described below.
(§4) HDAC-inhibiting activity evaluation in each in vitro system was made as follows. Each test compound was dissolved in DMSO, a stock solution with a concentration of 10 mM was thus prepared and this was used as an inhibitor stock solution. The assay was carried out by incubating the HDAC solution and a coumarin-labeled acetylated histone peptide solution in the presence of the test compound at 37° C. for 30 minutes (reaction volume 20 μl). To the reaction mixture was added 30 μl of trypsin, and the aminomethylcoumarin released by the enzymatic reaction was assayed using a fluorescent plate reader. In a negative control assay, no inhibitor was added to the reaction system and the same procedure was carried out.

murine HDAC6 = molecular target: T2, murine HDAC6 (Mus musculus, UniProt Q9Z2V5); test: as above; type: biochemical; settings: murine HDAC6 from transfected 293T cells; 37° C., 30 minutes
T2 construct: made in house; host or cells: 293T cells (transient transfection, anti-FLAG immunoprecipitation, FLAG peptide elution)
T2 sequence (Q9Z2V5 1-1149): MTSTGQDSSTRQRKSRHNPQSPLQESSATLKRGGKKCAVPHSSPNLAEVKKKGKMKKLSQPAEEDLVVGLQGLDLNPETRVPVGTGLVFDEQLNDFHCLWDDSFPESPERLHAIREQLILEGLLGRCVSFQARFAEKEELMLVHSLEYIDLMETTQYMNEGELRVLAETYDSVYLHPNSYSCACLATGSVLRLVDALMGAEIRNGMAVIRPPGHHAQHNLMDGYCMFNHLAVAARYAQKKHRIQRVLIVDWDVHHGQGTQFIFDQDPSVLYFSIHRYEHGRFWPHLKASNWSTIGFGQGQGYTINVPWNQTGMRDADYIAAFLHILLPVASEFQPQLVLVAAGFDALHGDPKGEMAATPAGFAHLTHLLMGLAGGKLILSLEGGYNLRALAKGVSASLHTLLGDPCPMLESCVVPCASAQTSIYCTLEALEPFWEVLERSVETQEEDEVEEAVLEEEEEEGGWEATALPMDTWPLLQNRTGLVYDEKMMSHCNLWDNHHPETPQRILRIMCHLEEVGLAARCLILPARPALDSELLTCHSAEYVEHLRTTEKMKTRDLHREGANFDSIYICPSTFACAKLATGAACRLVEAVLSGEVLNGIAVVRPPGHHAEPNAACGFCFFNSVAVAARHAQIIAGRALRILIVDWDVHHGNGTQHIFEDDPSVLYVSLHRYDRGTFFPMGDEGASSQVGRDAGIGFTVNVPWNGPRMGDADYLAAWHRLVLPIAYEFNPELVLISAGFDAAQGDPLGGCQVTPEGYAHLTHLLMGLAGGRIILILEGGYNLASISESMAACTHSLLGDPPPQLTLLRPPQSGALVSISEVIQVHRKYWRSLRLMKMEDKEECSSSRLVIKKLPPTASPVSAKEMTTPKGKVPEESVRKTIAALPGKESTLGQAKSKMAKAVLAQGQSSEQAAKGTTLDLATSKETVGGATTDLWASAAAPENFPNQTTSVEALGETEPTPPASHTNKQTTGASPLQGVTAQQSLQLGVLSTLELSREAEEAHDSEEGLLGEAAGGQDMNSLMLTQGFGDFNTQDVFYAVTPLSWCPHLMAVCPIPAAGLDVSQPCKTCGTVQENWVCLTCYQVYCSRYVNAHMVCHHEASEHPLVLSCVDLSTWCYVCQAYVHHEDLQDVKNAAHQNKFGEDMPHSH
Description: as §1, §2, §3, §4

human HDAC4 = molecular target: T3, human HDAC4 (Homo sapiens, UniProt P56524); test: as above; type: biochemical
T3 construct: made in house; host or cells: 293T cells (transient transfection, anti-FLAG immunoprecipitation, FLAG peptide elution)
Description: In carrying out HDAC-inhibiting activity measurements, HDAC solutions were prepared in the following manner. […] The human HDAC1 expression vector used was pcDNA3-HD1 (Yang, W. M., Yao, Y. L., Sun, […]. & Seto, E. (1997) J. Biol. Chem. 272, 28001-28007), the human HDAC4 expression vector used was pcDNA3-HD4 ([…]., Nagase, […]. Biol. Chem. 274, 11713-11720), and the murine HDAC6 expression vector used was pcDNA3-mHDA2/HDAC6 ([…]. Biol. Chem. 274, 2440-2445). After 24 hours of incubation, cells were recovered, washed with PBS, suspended in lysis buffer (50 mM Tris-HCl (pH 7.5), 120 mM NaCl, 5 mM EDTA, 0.5% Nonidet P-40), and sonicated. The supernatant was collected by centrifugation and then deprived of nonspecific proteins using Protein A/G plus agarose beads (Santa Cruz Biotechnologies, Inc.). Thereafter, anti-FLAG M2 antibody (Sigma-Aldrich Inc.) was added, and the reaction was allowed to proceed at 4° C. for 2 hours. To this were added agarose beads, the reaction was allowed to proceed at 4° C. for 3 hours, and the agarose beads were washed three times with lysis buffer and then once with HD buffer (20 mM Tris-HCl (pH 8.0), 150 mM NaCl, 10% glycerol). […] HDAC-inhibiting activity evaluation in each in vitro system was made as follows. Each test compound was dissolved in DMSO, a stock solution with a concentration of 10 mM was thus prepared and this was used as an inhibitor stock solution. The assay was carried out by incubating the HDAC solution and a coumarin-labeled acetylated histone peptide solution in the presence of the test compound at 37° C. for 30 minutes (reaction volume 20 μl). To the reaction mixture was added 30 μl of trypsin, and the aminomethylcoumarin released by the enzymatic reaction was assayed using a fluorescent plate reader. In a negative control assay, no inhibitor was added to the reaction system and the same procedure was carried out.

[1] = test system: human wild type p21 promoter; test: p21 promoter assay (luciferase) in MFLL-9 cells; type: cell-based; settings: 20 hours, concentration giving 1000% luminescence relative to negative control (100%)
Description: As an HDAC-inhibiting activity in an […] system, the following measurement was carried out using the p21 promoter inducing activity as an index. MFLL-9 cells used in the experiment are cells stably retaining a fusion gene (Dr. B. Vogelstaein) from the human wild type p21 promoter and luciferase gene. They were cultured using phenol red-free DMEM supplemented with 10% FBS in a steam-saturated incubator at 37° C. in the presence of 5% carbon dioxide. These MFLL-9 cells were sowed onto a 96-well microplate at a cell density of 2×10^4 cells/well and, after 24 hours of cultivation in 99 μl, per well, of the medium mentioned above, each test compound solution was added, followed by 20 hours of incubation. […] In a negative control, the same procedure was carried out without adding any inhibitor to the reaction system.
Using Luciferase Assay Reagent (Promega), the intensity of the luminescence due to the product of the enzymatic reaction involving luciferase expressed within cells was measured.

[2] = human HDAC4 from transfected 293T cells, 37° C., 30 minutes, read-out: HDAC-inhibiting activity IC50 HDAC4

T1 sequence (Q13547 whole entry): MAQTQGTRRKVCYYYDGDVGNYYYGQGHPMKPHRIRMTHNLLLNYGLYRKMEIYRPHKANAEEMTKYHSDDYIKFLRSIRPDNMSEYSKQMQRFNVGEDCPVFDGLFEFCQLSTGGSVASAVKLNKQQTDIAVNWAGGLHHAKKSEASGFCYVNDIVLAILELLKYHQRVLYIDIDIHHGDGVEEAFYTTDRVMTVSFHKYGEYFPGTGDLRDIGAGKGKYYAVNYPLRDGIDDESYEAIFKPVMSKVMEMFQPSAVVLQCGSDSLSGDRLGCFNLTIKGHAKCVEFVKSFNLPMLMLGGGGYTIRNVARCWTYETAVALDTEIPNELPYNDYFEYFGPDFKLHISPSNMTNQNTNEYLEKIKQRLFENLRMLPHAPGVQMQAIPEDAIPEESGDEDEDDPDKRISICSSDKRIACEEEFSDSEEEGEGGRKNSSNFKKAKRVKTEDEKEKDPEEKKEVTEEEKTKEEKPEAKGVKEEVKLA
T3 sequence (P56524 whole entry): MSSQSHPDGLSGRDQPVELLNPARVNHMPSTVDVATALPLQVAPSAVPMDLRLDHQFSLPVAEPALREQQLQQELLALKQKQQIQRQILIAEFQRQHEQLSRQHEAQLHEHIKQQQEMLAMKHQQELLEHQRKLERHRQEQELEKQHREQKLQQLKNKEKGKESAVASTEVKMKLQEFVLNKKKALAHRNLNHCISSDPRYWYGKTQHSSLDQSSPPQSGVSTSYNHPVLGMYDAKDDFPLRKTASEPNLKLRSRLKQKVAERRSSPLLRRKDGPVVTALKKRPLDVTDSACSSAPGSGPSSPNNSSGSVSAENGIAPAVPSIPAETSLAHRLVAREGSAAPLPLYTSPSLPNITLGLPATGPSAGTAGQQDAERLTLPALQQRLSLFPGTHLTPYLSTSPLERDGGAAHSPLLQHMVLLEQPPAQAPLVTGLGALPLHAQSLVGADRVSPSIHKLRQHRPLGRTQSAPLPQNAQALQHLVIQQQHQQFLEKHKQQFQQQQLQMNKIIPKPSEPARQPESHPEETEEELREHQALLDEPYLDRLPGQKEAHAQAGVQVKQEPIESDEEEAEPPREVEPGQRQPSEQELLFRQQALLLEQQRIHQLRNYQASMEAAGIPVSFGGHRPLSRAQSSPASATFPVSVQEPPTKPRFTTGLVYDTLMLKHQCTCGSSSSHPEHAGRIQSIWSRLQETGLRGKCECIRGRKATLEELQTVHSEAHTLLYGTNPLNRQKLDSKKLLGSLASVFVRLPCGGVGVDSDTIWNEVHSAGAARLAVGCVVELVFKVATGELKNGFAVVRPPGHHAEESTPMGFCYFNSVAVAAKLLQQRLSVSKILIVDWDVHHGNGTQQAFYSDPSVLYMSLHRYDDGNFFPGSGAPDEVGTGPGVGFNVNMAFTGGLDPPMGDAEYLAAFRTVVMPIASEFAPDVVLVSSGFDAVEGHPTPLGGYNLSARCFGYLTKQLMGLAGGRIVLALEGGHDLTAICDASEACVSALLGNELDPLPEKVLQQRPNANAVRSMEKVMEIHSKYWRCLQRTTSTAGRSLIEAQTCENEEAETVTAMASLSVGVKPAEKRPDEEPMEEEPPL
T3 sequence (O15379 whole entry, further chain): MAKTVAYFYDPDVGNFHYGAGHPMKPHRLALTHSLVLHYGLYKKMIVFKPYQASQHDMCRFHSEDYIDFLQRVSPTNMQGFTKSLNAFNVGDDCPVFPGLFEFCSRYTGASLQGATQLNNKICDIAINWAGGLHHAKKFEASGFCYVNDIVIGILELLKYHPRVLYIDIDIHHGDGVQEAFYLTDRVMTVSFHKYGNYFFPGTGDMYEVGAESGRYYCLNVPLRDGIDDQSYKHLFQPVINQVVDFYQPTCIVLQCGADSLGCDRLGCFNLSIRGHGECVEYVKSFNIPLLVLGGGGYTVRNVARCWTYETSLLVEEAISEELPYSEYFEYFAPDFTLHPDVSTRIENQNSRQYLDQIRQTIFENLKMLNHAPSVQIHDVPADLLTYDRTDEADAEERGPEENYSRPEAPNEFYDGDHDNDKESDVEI

| Compound | IC50 (human HDAC1) [nM] | IC50 (murine HDAC6) [nM] | IC50 (human HDAC4; [2]) [nM] | IC50 (human HDAC4) [nM] | p21 promoter activity EC1000 [1] [µM] |
| --- | --- | --- | --- | --- | --- |
| CCOCC(=O)CCCCC[C@@H]1NC(=O)[C@H]2CCCN2C(=O)[C@H](Cc2ccccc2)NC(=O)C(C)(C)NC1=O [Ky-10, cyclo(-L-Ae9(Emk)-Aib-L-Phe-D-Pro-)] | 21 | 8400 | 31 | – | 0.095 |
| CC1(C)NC(=O)[C@H](CCCCCC(=O)CBr)NC(=O)[C@H]2CCCN2C(=O)[C@H](Cc2ccccc2)NC1=O [Ky-12, cyclo(-L-Ae9(Bmk)-Aib-L-Phe-D-Pro-)] | 62 | 620 | 60 | – | 0.34 |
| CSCCCCC[C@@H]1NC(=O)[C@H]2CCCN2C(=O)[C@H](Cc2ccccc2)NC(=O)C(C)(C)NC1=O [Ky-15, cyclo(-L-Am7(methyl)-Aib-L-Phe-D-Pro-)] | > 100000 | > 100000 | > 100000 | – | – |
| CC1(C)NC(=O)[C@H](CCCCCSCc2ccccn2)NC(=O)[C@H]2CCCN2C(=O)[C@H](Cc2ccccc2)NC1=O [Ky-16, cyclo(-L-Am7(2-pyridylmethylthio ether)-Aib-L-Phe-D-Pro-)] | 23 | 58 | 11 | – | 0.20 |
| CC1(C)NC(=O)C(CCCCC[S+]([O-])Cc2ccccn2)NC(=O)[C@H]2CCCN2C(=O)[C@H](Cc2ccccc2)NC1=O (stereo partly drawn) [Ky-25, cyclo(-L-Am7(2-pyridylmethyl,sulfoxide)-Aib-L-Phe-D-Pro-)] | – | – | – | – | 1.4 |
| CC1(C)NC(=O)[C@H](CCCCCSCC(=O)C(F)(F)F)NC(=O)[C@H]2CCCN2C(=O)[C@H](Cc2ccccc2)NC1=O [Ky-29, cyclo(-L-Am7(1,1,1-trifluoroacetonyl)-Aib-L-Phe-D-Pro-)] | – | – | 360 | – | 0.028 |
| CC1(C)NC(=O)[C@H](CCCCCC(=O)COCC(F)(F)F)NC(=O)[C@H]2CCCN2C(=O)[C@H](Cc2ccccc2)NC1=O [Ky-60, cyclo(-L-Ae9(Tfemk)-Aib-L-Phe-D-Pro-)] | 370 | > 100000 | 460 | – | 0.85 |
| CC(=O)C[S+]([O-])CCCCCC1NC(=O)[C@H]2CCCN2C(=O)[C@H](Cc2ccccc2)NC(=O)C(C)(C)NC1=O (stereo partly drawn) [Ky-86, cyclo(-L-Am7(acetonyl,sulfoxide)-Aib-L-Phe-D-Pro-)] | – | – | – | – | 16.8 |

Second part, led by results:

| IC50 (human HDAC1) [nM] | IC50 (murine HDAC6) [nM] | IC50 (human HDAC4; [2]) [nM] | IC50 (human HDAC4) [nM] | Compound | p21 promoter activity EC1000 [1] [µM] |
| --- | --- | --- | --- | --- | --- |
| 110 | 40500 | 74 | – | CSCC(=O)CCCCC[C@@H]1NC(=O)[C@H]2CCCN2C(=O)[C@H](Cc2ccccc2)NC(=O)C(C)(C)NC1=O [Ky-13, cyclo(-L-Ae9(Mtmk)-Aib-L-Phe-D-Pro-)] | 0.13 |
| 20000 | > 100000 | 17900 | – | CN(C)CC(=O)CCCCC[C@@H]1NC(=O)[C@H]2CCCN2C(=O)[C@H](Cc2ccccc2)NC(=O)C(C)(C)NC1=O [Ky-14, cyclo(-L-Ae9(Dmamk)-Aib-L-Phe-D-Pro-)] | 2.4 |
| > 100000 | > 100000 | – | > 100000 | C=CCCCCC[C@@H]1NC(=O)[C@H]2CCCN2C(=O)[C@H](Cc2ccccc2)NC(=O)C(C)(C)NC1=O [Ky-17, cyclo(-L-Ae9-Aib-L-Phe-D-Pro-)] (cyclo([Aib]F[dP][Ala(5-hexenyl)])) | >250 |
| 110 | 4300 | 190 | – | CC(=O)SCC(=O)CCCCC[C@@H]1NC(=O)[C@H]2CCCN2C(=O)[C@H](Cc2ccccc2)NC(=O)C(C)(C)NC1=O [Ky-18, cyclo(-L-Ae9(Actmk)-Aib-L-Phe-D-Pro-)] | 0.013 |
| > 100000 | > 100000 | > 100000 | – | CC1(C)NC(=O)[C@H](CCCSCC(=O)C(F)(F)F)NC(=O)[C@H]2CCCN2C(=O)[C@H](Cc2ccccc2)NC1=O [Ky-27, cyclo(-L-Am5(1,1,1-trifluoroacetonyl)-Aib-L-Phe-D-Pro-)] | >250 |
| 83000 | > 100000 | 18400 | – | CC1(C)NC(=O)[C@H](CCCCSCC(=O)C(F)(F)F)NC(=O)[C@H]2CCCN2C(=O)[C@H](Cc2ccccc2)NC1=O [Ky-28, cyclo(-L-Am6(1,1,1-trifluoroacetonyl)-Aib-L-Phe-D-Pro-)] | 6.5 |
